Source: the supplement of paper PMC8612539
Converted amounts (≈) assume the structure as drawn.

System: Pasteurella multocida
Test: minimum inhibitory concentration (MIC)
Method: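 Broth microdilution MIC (Sensititre BOPO7F bovine plate, CLSI methods) of 19 antimicrobials against field isolates of P. multocida, M. haemolytica, H. somni (deep nasopharyngeal swabs) and E. coli, Enterococcus spp. (rectal swabs) from weaned dairy heifers. Incubation 16-24 h at 35 C. MIC is the lowest concentration preventing visible growth. Values with <= or > lie at the tested range limits. Trimethoprim-sulfamethoxazole is given as the trimethoprim component of a 1:19 mixture.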

C=C[C@]1(C)C[C@@H](OC(=O)CSCCN(CC)CC)[C@]2(C)[C@H](C)CC[C@]3(CCC(=O)[C@H]32)[C@@H](C)[C@@H]1O [Tiamulin]
Settings | minimum inhibitory concentration [µg/mL]
isolate (source animal id): 10 | 16 (≈ 32.4 µM)
isolate (source animal id): 11 | 16 (≈ 32.4 µM)
isolate (source animal id): 12 | 16 (≈ 32.4 µM)
isolate (source animal id): 19 | 16 (≈ 32.4 µM)
isolate (source animal id): 23 | 16 (≈ 32.4 µM)
isolate (source animal id): 26 | 32 (≈ 64.8 µM)
isolate (source animal id): 98 | 32 (≈ 64.8 µM)
isolate (source animal id): 104 | 32 (≈ 64.8 µM)
isolate (source animal id): 115 | 32 (≈ 64.8 µM)
isolate (source animal id): 117 | 32 (≈ 64.8 µM)
isolate (source animal id): 118 | 32 (≈ 64.8 µM)
isolate (source animal id): 121 | 32 (≈ 64.8 µM)
isolate (source animal id): 124 | 32 (≈ 64.8 µM)
isolate (source animal id): 125 | 32 (≈ 64.8 µM)
isolate (source animal id): 128 | 32 (≈ 64.8 µM)
isolate (source animal id): 131 | 32 (≈ 64.8 µM)
isolate (source animal id): 135 | 16 (≈ 32.4 µM)
isolate (source animal id): 136 | 32 (≈ 64.8 µM)
isolate (source animal id): 140 | 32 (≈ 64.8 µM)
isolate (source animal id): 144 | 32 (≈ 64.8 µM)
isolate (source animal id): 146 | 32 (≈ 64.8 µM)
isolate (source animal id): 150 | 32 (≈ 64.8 µM)
isolate (source animal id): 151 | 32 (≈ 64.8 µM)
isolate (source animal id): 153 | 32 (≈ 64.8 µM)
isolate (source animal id): 155 | 32 (≈ 64.8 µM)
isolate (source animal id): 157 | 16 (≈ 32.4 µM)
isolate (source animal id): 160 | 32 (≈ 64.8 µM)
isolate (source animal id): 164 | 32 (≈ 64.8 µM)
isolate (source animal id): 165 | 32 (≈ 64.8 µM)
isolate (source animal id): 167 | 32 (≈ 64.8 µM)
isolate (source animal id): 168 | 32 (≈ 64.8 µM)
isolate (source animal id): 169 | 16 (≈ 32.4 µM)
isolate (source animal id): 170 | 32 (≈ 64.8 µM)
isolate (source animal id): 171 | 32 (≈ 64.8 µM)
isolate (source animal id): 172 | 32 (≈ 64.8 µM)
isolate (source animal id): 173 | 32 (≈ 64.8 µM)
isolate (source animal id): 174 | 16 (≈ 32.4 µM)
isolate (source animal id): 175 | 32 (≈ 64.8 µM)
isolate (source animal id): 176 | 16 (≈ 32.4 µM)
isolate (source animal id): 177 | 32 (≈ 64.8 µM)
isolate (source animal id): 178 | 32 (≈ 64.8 µM)
isolate (source animal id): 179 | 32 (≈ 64.8 µM)
isolate (source animal id): 182 | 32 (≈ 64.8 µM)
isolate (source animal id): 192 | 32 (≈ 64.8 µM)
isolate (source animal id): 193 | 32 (≈ 64.8 µM)
isolate (source animal id): 195 | 32 (≈ 64.8 µM)
isolate (source animal id): 196 | 32 (≈ 64.8 µM)
isolate (source animal id): 197 | 32 (≈ 64.8 µM)
isolate (source animal id): 198 | 32 (≈ 64.8 µM)
isolate (source animal id): 199 | 32 (≈ 64.8 µM)
isolate (source animal id): 200 | 32 (≈ 64.8 µM)
isolate (source animal id): 201 | 32 (≈ 64.8 µM)
isolate (source animal id): 203 | 16 (≈ 32.4 µM)
isolate (source animal id): 204 | 32 (≈ 64.8 µM)
isolate (source animal id): 205 | 32 (≈ 64.8 µM)
isolate (source animal id): 206 | 32 (≈ 64.8 µM)
isolate (source animal id): 207 | 32 (≈ 64.8 µM)
isolate (source animal id): 208 | 16 (≈ 32.4 µM)
isolate (source animal id): 209 | 16 (≈ 32.4 µM)
isolate (source animal id): 210 | 32 (≈ 64.8 µM)
isolate (source animal id): 213 | 16 (≈ 32.4 µM)
isolate (source animal id): 216 | 32 (≈ 64.8 µM)
isolate (source animal id): 223 | 16 (≈ 32.4 µM)
isolate (source animal id): 227 | 16 (≈ 32.4 µM)
isolate (source animal id): 229 | 32 (≈ 64.8 µM)
isolate (source animal id): 233 | > 32
isolate (source animal id): 234 | 32 (≈ 64.8 µM)
isolate (source animal id): 237 | 32 (≈ 64.8 µM)
isolate (source animal id): 241 | 32 (≈ 64.8 µM)
isolate (source animal id): 245 | 32 (≈ 64.8 µM)
isolate (source animal id): 247 | 32 (≈ 64.8 µM)
isolate (source animal id): 250 | 32 (≈ 64.8 µM)
isolate (source animal id): 254 | 32 (≈ 64.8 µM)
isolate (source animal id): 255 | 16 (≈ 32.4 µM)
isolate (source animal id): 258 | 32 (≈ 64.8 µM)
isolate (source animal id): 261 | 32 (≈ 64.8 µM)
isolate (source animal id): 262 | 32 (≈ 64.8 µM)
isolate (source animal id): 269 | 32 (≈ 64.8 µM)
isolate (source animal id): 270 | 32 (≈ 64.8 µM)
isolate (source animal id): 274 | 32 (≈ 64.8 µM)
isolate (source animal id): 275 | 32 (≈ 64.8 µM)
isolate (source animal id): 276 | 32 (≈ 64.8 µM)
isolate (source animal id): 277 | 32 (≈ 64.8 µM)
isolate (source animal id): 278 | 32 (≈ 64.8 µM)
isolate (source animal id): 279 | 32 (≈ 64.8 µM)
isolate (source animal id): 280 | 32 (≈ 64.8 µM)
isolate (source animal id): 284 | 32 (≈ 64.8 µM)
isolate (source animal id): 285 | 32 (≈ 64.8 µM)
isolate (source animal id): 287 | 32 (≈ 64.8 µM)
isolate (source animal id): 290 | 32 (≈ 64.8 µM)
isolate (source animal id): 294 | 32 (≈ 64.8 µM)
isolate (source animal id): 295 | > 32
isolate (source animal id): 296 | 32 (≈ 64.8 µM)
isolate (source animal id): 307 | 32 (≈ 64.8 µM)
isolate (source animal id): 310 | > 32
isolate (source animal id): 311 | > 32
isolate (source animal id): 312 | 32 (≈ 64.8 µM)
isolate (source animal id): 313 | 32 (≈ 64.8 µM)
isolate (source animal id): 315 | 32 (≈ 64.8 µM)
isolate (source animal id): 316 | 32 (≈ 64.8 µM)

CCC[C@@H]1C[C@@H](C(=O)N[C@@H]([C@H]2O[C@H](SC)[C@H](O)[C@@H](O)[C@H]2O)[C@H](C)Cl)N(C)C1 [Clindamycin]
Settings | minimum inhibitory concentration [µg/mL]
isolate (source animal id): 10 | > 16
isolate (source animal id): 11 | > 16
isolate (source animal id): 12 | > 16
isolate (source animal id): 19 | > 16
isolate (source animal id): 23 | > 16
isolate (source animal id): 26 | > 16
isolate (source animal id): 98 | > 16
isolate (source animal id): 104 | > 16
isolate (source animal id): 115 | > 16
isolate (source animal id): 117 | > 16
isolate (source animal id): 118 | > 16
isolate (source animal id): 121 | > 16
isolate (source animal id): 124 | > 16
isolate (source animal id): 125 | > 16
isolate (source animal id): 128 | > 16
isolate (source animal id): 131 | > 16
isolate (source animal id): 135 | > 16
isolate (source animal id): 136 | > 16
isolate (source animal id): 140 | > 16
isolate (source animal id): 144 | > 16
isolate (source animal id): 146 | > 16
isolate (source animal id): 150 | > 16
isolate (source animal id): 151 | > 16
isolate (source animal id): 153 | > 16
isolate (source animal id): 155 | > 16
isolate (source animal id): 157 | > 16
isolate (source animal id): 160 | > 16
isolate (source animal id): 164 | > 16
isolate (source animal id): 165 | > 16
isolate (source animal id): 167 | > 16
isolate (source animal id): 168 | > 16
isolate (source animal id): 169 | > 16
isolate (source animal id): 170 | > 16
isolate (source animal id): 171 | > 16
isolate (source animal id): 172 | > 16
isolate (source animal id): 173 | > 16
isolate (source animal id): 174 | > 16
isolate (source animal id): 175 | > 16
isolate (source animal id): 176 | > 16
isolate (source animal id): 177 | > 16
isolate (source animal id): 178 | > 16
isolate (source animal id): 179 | > 16
isolate (source animal id): 182 | > 16
isolate (source animal id): 192 | > 16
isolate (source animal id): 193 | > 16
isolate (source animal id): 195 | 8 (≈ 18.8 µM)
isolate (source animal id): 196 | > 16
isolate (source animal id): 197 | > 16
isolate (source animal id): 198 | > 16
isolate (source animal id): 199 | > 16
isolate (source animal id): 200 | > 16
isolate (source animal id): 201 | > 16
isolate (source animal id): 203 | > 16
isolate (source animal id): 204 | > 16
isolate (source animal id): 205 | > 16
isolate (source animal id): 206 | > 16
isolate (source animal id): 207 | > 16
isolate (source animal id): 208 | > 16
isolate (source animal id): 209 | > 16
isolate (source animal id): 210 | > 16
isolate (source animal id): 213 | > 16
isolate (source animal id): 216 | > 16
isolate (source animal id): 223 | > 16
isolate (source animal id): 227 | > 16
isolate (source animal id): 229 | > 16
isolate (source animal id): 233 | > 16
isolate (source animal id): 234 | > 16
isolate (source animal id): 237 | > 16
isolate (source animal id): 241 | > 16
isolate (source animal id): 245 | > 16
isolate (source animal id): 247 | > 16
isolate (source animal id): 250 | > 16
isolate (source animal id): 254 | > 16
isolate (source animal id): 255 | > 16
isolate (source animal id): 258 | > 16
isolate (source animal id): 261 | > 16
isolate (source animal id): 262 | > 16
isolate (source animal id): 269 | > 16
isolate (source animal id): 270 | > 16
isolate (source animal id): 274 | > 16
isolate (source animal id): 275 | > 16
isolate (source animal id): 276 | > 16
isolate (source animal id): 277 | > 16
isolate (source animal id): 278 | > 16
isolate (source animal id): 279 | > 16
isolate (source animal id): 280 | > 16
isolate (source animal id): 284 | > 16
isolate (source animal id): 285 | > 16
isolate (source animal id): 287 | > 16
isolate (source animal id): 290 | > 16
isolate (source animal id): 294 | > 16
isolate (source animal id): 295 | > 16
isolate (source animal id): 296 | > 16
isolate (source animal id): 307 | > 16
isolate (source animal id): 310 | > 16
isolate (source animal id): 311 | > 16
isolate (source animal id): 312 | > 16
isolate (source animal id): 313 | > 16
isolate (source animal id): 315 | > 16
isolate (source animal id): 316 | > 16
